According to ChEMBL document CHEMBL1201862, “PubChem BioAssay data set” (2004):
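Results reflect a 48-hour exposure of cells in 96-well plates to compound at five concentrations. GI50: concentration for 50% inhibition of growth.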 Active and inactive are the calls of the source. Cut-off read from the data, not from the text of the source: active = GI50 up to about 1.1 µM and inactive = higher.

What was measured:
Experiment in all cases: NCI tumour cell line growth inhibition, 48 h
NCI-H522 = tested on: NCI-H522
U-251 = tested on: U-251
BT-549 = tested on: BT-549
SK-OV-3 = tested on: SK-OV-3
PC-3 = tested on: PC-3
A549 = tested on: A549
SK-MEL-5 = tested on: SK-MEL-5
T47D = tested on: T47D
TK-10 = tested on: TK-10
NCI-H23 = tested on: NCI-H23
SF-295 = tested on: SF-295
HCC 2998 = tested on: HCC 2998
SF-268 = tested on: SF-268
DU-145 = tested on: DU-145
CAKI-1 = tested on: CAKI-1
K562 = tested on: K562
SW-620 = tested on: SW-620
Hs-578T = tested on: Hs-578T
NCI-H226 = tested on: NCI-H226
HCT-116 = tested on: HCT-116
UACC-62 = tested on: UACC-62
CCRF-CEM = tested on: CCRF-CEM
HCT-15 = tested on: HCT-15
Malme-3M = tested on: Malme-3M
MDA-MB-231 = tested on: MDA-MB-231
OVCAR-4 = tested on: OVCAR-4
OVCAR-5 = tested on: OVCAR-5
SK-MEL-2 = tested on: SK-MEL-2
ACHN = tested on: ACHN
MDA-N = tested on: MDA-N
786-0 = tested on: 786-0
A498 = tested on: A498
HOP-92 = tested on: HOP-92
IGROV-1 = tested on: IGROV-1
MDA-MB-435 = tested on: MDA-MB-435
SF-539 = tested on: SF-539
EKVX = tested on: EKVX
OVCAR-8 = tested on: OVCAR-8
COLO 205 = tested on: COLO 205
KM12 = tested on: KM12
LOX IMVI = tested on: LOX IMVI
RXF 393 = tested on: RXF 393
OVCAR-3 = tested on: OVCAR-3
UO-31 = tested on: UO-31
SNB-19 = tested on: SNB-19
HL-60 = tested on: HL-60
UACC-257 = tested on: UACC-257
SK-MEL-28 = tested on: SK-MEL-28
SN12C = tested on: SN12C
HT-29 = tested on: HT-29
M14 = tested on: M14
NCI/ADR-RES = tested on: NCI/ADR-RES
NCI-H460 = tested on: NCI-H460
MOLT-4 = tested on: MOLT-4
SR = tested on: SR
RPMI-8226 = tested on: RPMI-8226
MCF7 = tested on: MCF7
HOP-62 = tested on: HOP-62
SNB-75 = tested on: SNB-75

Measured: GI50

CCCNC(C#N)c1ccc(C(C#N)NCCC)cc1 (configuration not stated)
> 100 µM: HCT-15
inactive: NCI-H522 > 100 µM | U-251 > 100 µM | BT-549 > 100 µM | SK-OV-3 > 100 µM | PC-3 > 100 µM | A549 > 100 µM | SK-MEL-5 > 100 µM | T47D > 100 µM | TK-10 > 100 µM | NCI-H23 > 100 µM | SF-295 > 100 µM | HCC 2998 > 100 µM | SF-268 > 100 µM | DU-145 > 100 µM | CAKI-1 > 100 µM | K562 37.8 µM | SW-620 > 100 µM | Hs-578T > 100 µM | NCI-H226 > 100 µM | HCT-116 40.3 µM | UACC-62 > 100 µM | CCRF-CEM 24.4 µM | Malme-3M > 100 µM | MDA-MB-231 > 100 µM | OVCAR-4 > 100 µM | OVCAR-5 > 100 µM | SK-MEL-2 > 100 µM | ACHN > 100 µM | MDA-N 36.3 µM | 786-0 > 100 µM | A498 > 100 µM | HOP-92 45.4 µM | IGROV-1 > 100 µM | MDA-MB-435 76.4 µM | SF-539 > 100 µM | EKVX > 100 µM | OVCAR-8 29.9 µM | COLO 205 81.3 µM | KM12 > 100 µM | LOX IMVI > 100 µM | RXF 393 > 100 µM | OVCAR-3 > 100 µM | UO-31 > 100 µM | SNB-19 > 100 µM | HL-60 40.8 µM | UACC-257 > 100 µM | SK-MEL-28 > 100 µM | SN12C > 100 µM | HT-29 > 100 µM | M14 > 100 µM | NCI/ADR-RES 50.2 µM | NCI-H460 > 100 µM | MOLT-4 37.3 µM

COc1c(CCl)cc(-c2cc(=O)c3ccccc3s2)cc1CCl
> 100 µM: HCT-15
inactive: NCI-H522 1.99 µM | SR 3.18 µM | U-251 18.8 µM | BT-549 36.6 µM | SK-OV-3 27.3 µM | PC-3 > 100 µM | A549 37.8 µM | SK-MEL-5 39.4 µM | T47D 1.66 µM | TK-10 26.9 µM | NCI-H23 18.9 µM | SF-295 11.9 µM | HCC 2998 2.29 µM | SF-268 9.23 µM | DU-145 > 100 µM | CAKI-1 7.62 µM | K562 2.68 µM | Hs-578T 9.57 µM | NCI-H226 30.1 µM | HCT-116 5.58 µM | UACC-62 4.99 µM | CCRF-CEM 2.24 µM | RPMI-8226 3.77 µM | MCF7 1.91 µM | HOP-62 10.6 µM | Malme-3M 1.5 µM | MDA-MB-231 2.76 µM | OVCAR-4 3.58 µM | OVCAR-5 > 100 µM | SK-MEL-2 10.1 µM | ACHN 45.2 µM | MDA-N 6.08 µM | A498 20.4 µM | IGROV-1 2.51 µM | MDA-MB-435 > 100 µM | SF-539 6.55 µM | EKVX > 100 µM | OVCAR-8 15 µM | COLO 205 3.33 µM | KM12 3.33 µM | LOX IMVI 1.86 µM | RXF 393 1.63 µM | OVCAR-3 11.5 µM | UO-31 1.95 µM | SNB-19 29.3 µM | SNB-75 6.78 µM | HL-60 2.59 µM | UACC-257 > 100 µM | SK-MEL-28 > 94.4 µM | SN12C > 100 µM | M14 > 100 µM | NCI-H460 22.9 µM | MOLT-4 1.91 µM
active: 786-0 0.65 µM | HOP-92 0.0449 µM

Cc1ccc(S(=O)(=O)NC(=O)NC(CCC(N)=O)C(=O)O)cc1 (configuration not stated)
inactive: NCI-H522 > 100 µM | SR > 100 µM | U-251 > 100 µM | BT-549 > 100 µM | SK-OV-3 > 100 µM | PC-3 > 100 µM | A549 > 100 µM | SK-MEL-5 > 100 µM | T47D > 100 µM | TK-10 > 100 µM | NCI-H23 > 100 µM | SF-295 > 100 µM | SF-268 > 100 µM | DU-145 > 100 µM | K562 > 100 µM | SW-620 > 100 µM | Hs-578T > 100 µM | HCT-116 > 100 µM | UACC-62 > 100 µM | CCRF-CEM > 100 µM | RPMI-8226 > 100 µM | MCF7 > 100 µM | HOP-62 > 100 µM | Malme-3M > 100 µM | MDA-MB-231 > 100 µM | OVCAR-4 > 100 µM | OVCAR-5 > 100 µM | SK-MEL-2 > 100 µM | ACHN > 100 µM | MDA-N > 100 µM | 786-0 > 100 µM | HOP-92 64.3 µM | IGROV-1 > 100 µM | SF-539 > 100 µM | OVCAR-8 > 100 µM | COLO 205 > 100 µM | KM12 > 100 µM | LOX IMVI > 100 µM | RXF 393 > 100 µM | UO-31 > 100 µM | SNB-19 > 100 µM | SNB-75 > 100 µM | HL-60 69.5 µM | UACC-257 > 100 µM | SK-MEL-28 > 100 µM | SN12C > 100 µM | HT-29 > 100 µM | M14 > 100 µM | NCI/ADR-RES > 100 µM | NCI-H460 > 100 µM | MOLT-4 > 100 µM
> 100 µM: HCT-15

O=S(=O)(O)c1ccc2c(/N=N/c3cccc4ccccc34)c(O)c(S(=O)(=O)O)cc2c1
inactive: NCI-H522 > 100 µM | U-251 > 100 µM | BT-549 > 100 µM | SK-OV-3 > 100 µM | PC-3 > 100 µM | A549 > 100 µM | SK-MEL-5 > 100 µM | T47D > 100 µM | TK-10 > 100 µM | NCI-H23 > 100 µM | SF-295 > 100 µM | SF-268 > 100 µM | DU-145 > 100 µM | CAKI-1 > 100 µM | K562 > 100 µM | SW-620 > 100 µM | Hs-578T > 100 µM | NCI-H226 > 100 µM | HCT-116 > 100 µM | UACC-62 > 100 µM | CCRF-CEM > 100 µM | RPMI-8226 > 100 µM | HOP-62 > 100 µM | Malme-3M > 100 µM | MDA-MB-231 > 100 µM | OVCAR-4 > 100 µM | OVCAR-5 > 100 µM | SK-MEL-2 > 100 µM | ACHN > 100 µM | MDA-N > 100 µM | 786-0 > 100 µM | HOP-92 > 100 µM | IGROV-1 > 100 µM | MDA-MB-435 > 100 µM | EKVX > 100 µM | OVCAR-8 > 100 µM | COLO 205 > 100 µM | KM12 > 100 µM | LOX IMVI > 100 µM | RXF 393 > 100 µM | OVCAR-3 > 100 µM | UO-31 > 100 µM | SNB-19 > 100 µM | SNB-75 > 100 µM | HL-60 > 100 µM | UACC-257 > 100 µM | SK-MEL-28 > 100 µM | SN12C > 100 µM | HT-29 > 100 µM | M14 > 100 µM | NCI/ADR-RES > 100 µM | MOLT-4 > 100 µM
> 100 µM: HCT-15

O=C1Cc2c([nH]c3cc(Br)ccc23)-c2ccccc2N1
inactive: NCI-H522 15 µM | SR 21.9 µM | U-251 14.4 µM | BT-549 17.2 µM | SK-OV-3 19.9 µM | PC-3 3.56 µM | A549 15.8 µM | SK-MEL-5 16 µM | T47D 10.9 µM | TK-10 29.3 µM | NCI-H23 11.6 µM | SF-295 22.5 µM | SF-268 25.2 µM | DU-145 21.4 µM | K562 4.09 µM | SW-620 6.81 µM | Hs-578T 14.8 µM | NCI-H226 6.98 µM | HCT-116 3.4 µM | UACC-62 12.6 µM | CCRF-CEM 2.19 µM | MCF7 34.6 µM | HOP-62 11.7 µM | Malme-3M 20.8 µM | MDA-MB-231 22.8 µM | OVCAR-4 10.3 µM | OVCAR-5 9.51 µM | ACHN 17.5 µM | MDA-N 30.1 µM | 786-0 36 µM | A498 21.5 µM | HOP-92 31.1 µM | IGROV-1 16.4 µM | MDA-MB-435 26.5 µM | SF-539 16.2 µM | OVCAR-8 18.4 µM | COLO 205 19.2 µM | KM12 18.6 µM | LOX IMVI 2.9 µM | RXF 393 3.24 µM | OVCAR-3 19.6 µM | UO-31 17.6 µM | SNB-19 21.9 µM | SNB-75 23.8 µM | HL-60 58.2 µM | SK-MEL-28 > 100 µM | SN12C 18.5 µM | HT-29 13.9 µM | M14 18.5 µM | NCI-H460 15.5 µM | MOLT-4 3.56 µM
4.21 µM: HCT-15
